Converted amounts (≈) assume the structure as drawn.
Columns and labels:
[1] = Clearance in cynomolgus monkey at 1 mg/kg,iv; assay type: ADME, organism-based, Macaca fascicularis; settings: in vivo
[2] = Tmax in cynomolgus monkey at 10 mg/kg,po; assay type: ADME, organism-based, Macaca fascicularis; settings: in vivo
[3] = Oral bioavailability in cynomolgus monkey at 10 mg/kg; assay type: ADME, organism-based, Macaca fascicularis; settings: in vivo
[4] = Metabolic stability in monkey liver microsomes assessed as half life incubated upto 60 mins in presence of NADPH by LC-MS/MS analysis; assay type: ADME, Macaca mulatta, Microsome; settings: rhesus monkey
[5] = target: T1, AhR (aryl hydrocarbon receptor) (Homo sapiens, UniProt P35869); assay: Activation of AhR (unknown origin) assessed as fold change at 1 to 10 uM relative to control; settings: dose 1-10 µM, read-out: FC
T1 sequence (P35869 whole entry): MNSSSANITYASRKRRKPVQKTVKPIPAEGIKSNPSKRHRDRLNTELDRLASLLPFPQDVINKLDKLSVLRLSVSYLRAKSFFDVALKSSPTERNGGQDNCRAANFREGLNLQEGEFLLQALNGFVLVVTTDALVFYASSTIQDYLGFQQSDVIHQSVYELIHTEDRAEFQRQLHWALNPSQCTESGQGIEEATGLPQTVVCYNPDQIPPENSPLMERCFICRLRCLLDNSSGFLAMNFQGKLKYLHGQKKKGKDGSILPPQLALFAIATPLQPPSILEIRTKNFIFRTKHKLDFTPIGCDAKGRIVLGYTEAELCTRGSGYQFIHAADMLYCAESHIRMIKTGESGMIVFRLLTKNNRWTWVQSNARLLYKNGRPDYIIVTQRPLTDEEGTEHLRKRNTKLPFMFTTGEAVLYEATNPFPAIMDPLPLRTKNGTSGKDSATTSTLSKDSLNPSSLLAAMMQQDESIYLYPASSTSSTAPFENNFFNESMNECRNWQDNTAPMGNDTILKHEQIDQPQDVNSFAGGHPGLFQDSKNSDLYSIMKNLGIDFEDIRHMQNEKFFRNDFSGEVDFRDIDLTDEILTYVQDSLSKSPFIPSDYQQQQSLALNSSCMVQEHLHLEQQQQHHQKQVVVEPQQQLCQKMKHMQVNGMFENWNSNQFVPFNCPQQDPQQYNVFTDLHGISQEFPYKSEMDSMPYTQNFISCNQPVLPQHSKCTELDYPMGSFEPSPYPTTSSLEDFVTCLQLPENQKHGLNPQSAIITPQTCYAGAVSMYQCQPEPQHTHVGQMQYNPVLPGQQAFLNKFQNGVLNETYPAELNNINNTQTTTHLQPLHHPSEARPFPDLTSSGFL

MOLM-13 [6] = assay: Antitumor activity against human MOLM-13 cells xenografted in NSG mouse assessed as tumor growth inhibition at 0.062 mg/kg,po administrated daily for 10 days relative to control; assay type: functional; settings: MOLM-13, 240 h, time 10 day, read-out: TGI
[7] = Half life in C57BL mouse at 2 mg/kg,iv measured upto 24 hrs by LC-MS/MS analysis; assay type: ADME, organism-based; settings: in vivo
MOLM-13 [8] = assay: Antitumor activity against human MOLM-13 cells xenografted in NSG mouse assessed as tumor growth inhibition at 0.031 mg/kg,po administrated daily for 10 days relative to control; assay type: functional; settings: MOLM-13, 240 h, time 10 day, read-out: TGI
[9] = Equilibrium solubility of compound in SGF at pH 1 using crystalline form incubated for 2 to 5 days by HPLC analysis; assay type: ADME; settings: time 2-5 day
[10] = Half life in human hepatocyte; assay type: ADME, cell-based; settings: hepatocytes
CYP3A4 [11] = target: T2, CYP3A4 (Homo sapiens, UniProt P08684); assay: Induction of CYP3A4 in cryopreserved human hepatocytes using midazolam as substrate assessed as fold change at 1 uM relative to control; assay type: ADME, cell-based, Hepatocyte; settings: probe midazolam, read-out: FC
T2 sequence (P08684 whole entry): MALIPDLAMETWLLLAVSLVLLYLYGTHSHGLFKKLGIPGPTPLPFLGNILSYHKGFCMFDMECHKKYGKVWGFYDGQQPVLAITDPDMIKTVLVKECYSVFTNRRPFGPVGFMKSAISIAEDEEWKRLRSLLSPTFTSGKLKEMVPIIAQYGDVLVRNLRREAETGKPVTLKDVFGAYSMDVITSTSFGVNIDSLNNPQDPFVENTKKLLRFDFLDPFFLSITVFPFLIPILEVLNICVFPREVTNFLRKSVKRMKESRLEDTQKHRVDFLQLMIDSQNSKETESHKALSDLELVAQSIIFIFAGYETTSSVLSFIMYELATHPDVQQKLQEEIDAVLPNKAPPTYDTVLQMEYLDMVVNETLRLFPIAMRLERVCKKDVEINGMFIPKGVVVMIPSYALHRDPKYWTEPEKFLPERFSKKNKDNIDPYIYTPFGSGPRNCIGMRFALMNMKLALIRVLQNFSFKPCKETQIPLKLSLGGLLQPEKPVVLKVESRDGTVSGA

[12] = Equilibrium solubility of compound in PBS at pH 2 incubated for 2 to 5 days by HPLC analysis; assay type: physicochemical; settings: PBS, time 2-5 day
[13] = Half life in dog hepatocyte; assay type: ADME, cell-based, Canis lupus familiaris; settings: hepatocytes
[14] = target: Voltage-gated inwardly rectifying potassium channel KCNH2 (Homo sapiens, UniProt Q12809); assay: Inhibition of hERG; assay type: toxicity
Chain of Voltage-gated inwardly rectifying potassium channel KCNH2 (Q12809 whole entry): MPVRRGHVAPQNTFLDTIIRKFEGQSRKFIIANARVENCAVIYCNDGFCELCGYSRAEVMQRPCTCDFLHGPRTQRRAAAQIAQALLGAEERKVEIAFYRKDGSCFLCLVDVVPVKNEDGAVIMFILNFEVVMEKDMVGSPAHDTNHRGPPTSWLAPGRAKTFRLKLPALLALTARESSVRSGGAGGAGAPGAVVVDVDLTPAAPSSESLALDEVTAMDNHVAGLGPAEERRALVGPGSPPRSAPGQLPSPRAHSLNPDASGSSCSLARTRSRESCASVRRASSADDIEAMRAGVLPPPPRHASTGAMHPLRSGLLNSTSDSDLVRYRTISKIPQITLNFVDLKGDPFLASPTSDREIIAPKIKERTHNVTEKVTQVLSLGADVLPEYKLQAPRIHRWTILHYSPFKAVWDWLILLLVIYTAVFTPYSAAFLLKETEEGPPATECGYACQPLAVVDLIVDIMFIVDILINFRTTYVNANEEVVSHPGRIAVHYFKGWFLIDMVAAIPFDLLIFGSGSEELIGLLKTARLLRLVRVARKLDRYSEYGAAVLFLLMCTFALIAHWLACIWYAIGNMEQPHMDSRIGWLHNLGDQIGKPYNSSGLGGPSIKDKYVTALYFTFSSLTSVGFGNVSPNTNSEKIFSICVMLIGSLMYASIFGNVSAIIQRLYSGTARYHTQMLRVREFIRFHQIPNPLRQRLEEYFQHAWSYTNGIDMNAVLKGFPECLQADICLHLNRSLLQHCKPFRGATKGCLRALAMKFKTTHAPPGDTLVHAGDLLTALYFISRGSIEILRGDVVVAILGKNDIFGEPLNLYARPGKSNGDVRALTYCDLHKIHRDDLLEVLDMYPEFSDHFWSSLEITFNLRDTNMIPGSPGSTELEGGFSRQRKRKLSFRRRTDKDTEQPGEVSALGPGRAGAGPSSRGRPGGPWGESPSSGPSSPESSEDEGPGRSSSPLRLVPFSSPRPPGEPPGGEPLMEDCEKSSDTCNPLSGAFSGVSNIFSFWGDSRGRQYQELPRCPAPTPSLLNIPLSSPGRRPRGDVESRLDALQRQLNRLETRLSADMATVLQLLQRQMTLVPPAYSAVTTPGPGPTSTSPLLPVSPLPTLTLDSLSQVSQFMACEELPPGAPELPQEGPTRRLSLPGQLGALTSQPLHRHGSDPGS

MOLM-13 [15] = assay: Antitumor activity against human MOLM-13 cells xenografted in NSG mouse assessed as tumor growth inhibition at 0.25 mg/kg,po administrated daily for 10 days relative to control; assay type: functional; settings: MOLM-13, 240 h, time 10 day, read-out: TGI
[16] = Cmax in cynomolgus monkey at 10 mg/kg,po; assay type: ADME, organism-based, Macaca fascicularis; settings: in vivo
CYP3A4 [17] = target: T2, CYP3A4; assay: Induction of CYP3A4 in cryopreserved human hepatocytes using midazolam as substrate assessed as fold change at 10 uM relative to control; assay type: ADME, cell-based, Hepatocyte; settings: probe midazolam, read-out: FC
[18] = Passive permeability across apical to basolateral side in dog MDCK-MDR1 cells; assay type: ADME, cell-based, Canis lupus familiaris
[19] = Metabolic stability in dog liver microsomes assessed as half life incubated upto 60 mins in presence of NADPH by LC-MS/MS analysis; assay type: ADME, Canis lupus familiaris, Microsome
[20] = Half life in cynomolgus monkey at 1 mg/kg,iv; assay type: ADME, organism-based, Macaca fascicularis; settings: in vivo

Molecule `CCn1c(CO)nn(-c2cc3c(C(C)C)cn(-c4ccccc4C)c(=O)c3cc2F)c1=O` has a clearance [1] of 2.4 mL/min/kg, a Tmax [2] of 3.3 h and a bioavailability [3] of 88%. The half-life [4] was > 3 h, the fold induction [5] was < 2 and the inhibition in vivo at 0.062 mg/kg (MOLM-13 [6]) was 75%. The half-life [7] was 5.7 h, the inhibition in vivo at 0.031 mg/kg (MOLM-13 [8]) was 42% and the solubility thermodynamic [9] was 25 µg/mL (≈ 57.3 µM). The half-life [10] was > 6.18 h, the fold induction at 1 µM (CYP3A4 [11]) was < 2 and the solubility thermodynamic [12] was 325 µM (≈ 142 µg/mL). For the same molecule, the half-life [13] was 0.242 h, the IC50 [14] was > 10 µM and the inhibition in vivo at 0.25 mg/kg (MOLM-13 [15]) was 93%. It also gave a Cmax [16] of 5800 ng/mL, a fold induction at 10 µM (CYP3A4 [17]) of 2.5 and a Papp A→B [18] of 33.1 ×10⁻⁶ cm/s. For the same molecule, the half-life [19] was 0.958 h and the half-life [20] was 6.4 h.
